Key:
[1] = 1 wt. % minocycline, 1% hyaluronic acid decoy or none, p=0.0004
Method: Delivery of minocycline into porcine skin in vitro was measured and compared to delivery of minocycline from a composition of minocycline in saline (i.e, with no decoy molecule). Compositions were prepared containing of 1 wt. % minocycline and 1% of decoy molecule of hyaluronic acid with three molecular weights: 10,000 Da mean, 20,000 Da mean, and 30,000 Da mean. A control formulation containing 1 wt % minocycline in saline was also prepared

[2] = Gabapentin delivery into porcine skin grafts, UPLC-mass spectrometer; format: in vitro ADME; conditions: 1% gabapentin in saline, 12-20 hours
Method: Delivery of gabapentin with hyaluronic acid into skin in vitro was measured using porcine skin grafts, and compared to delivery of gabapentin from a composition of gabapentin in saline (with no decoy molecule). Groups consisted of A) 1% gabapentin in saline (n=8 replicates), B) 1% gabapentin plus 1% sodium hyaluronate decoy of 3,000 Da in saline (n=8 replicates) or C) saline alone (n=8 replicates) in donor cells.
Briefly, tissues were incubated overnight in 0.5 mL of 50% acetonitrile in deionized water at 55° C. with agitation. Calibration standards and tissue extraction solvent samples were diluted 10× in deionized water before analysis. Diluted standards and samples were analyzed at 1 μL injection volumes. Concentrations were reported as μg/g of gabapentin in tissue.

[3] = Transdermal delivery of a small molecule compound (summary); format: in vitro ADME; set-up: key: 0: on a scale using +symbols to reflect extent of the effect; −: on a scale using +symbols to reflect extent of the effect; +/−: on a scale using +symbols to reflect extent of the effect; on a scale using +symbols to reflect extent of the effect; ++: on a scale using +symbols to reflect extent of the effect; +++: on a scale using +symbols to reflect extent of the effect; ++++: on a scale using +symbols to reflect extent of the effect; +++++: on a scale using +symbols to reflect extent of the effect; conditions: compound of less than about 850 Da, hyaluronic acid decoy
Text: (§1) It will be appreciated that Examples 1-6, 11, 12 illustrate hyaluronic acid as a decoy molecule exemplary of the decoy molecules contemplated herein. As described above, decoy molecules of collagen and elastin are contemplated, where the molecular weight of the decoy molecule can be selected to tailor the delivery of the agent of interest across the skin. The table below summarizes the effect of the decoy molecule (using the hyaluronic acid as exemplary) on the transdermal delivery of a small molecule compound (e.g, one with a molecular weight of less than about 850 Da), on the transdermal delivery of a macromolecule compound (e.g, a peptide or a protein), on the extent of penetration of the decoy molecule into skin upon topical application, and on the enhancement of water content in skin by the decoy molecule, on a scale using +symbols to reflect extent of the effect.

[4] = Transdermal delivery of a macromolecule compound (summary); format: in vitro ADME; set-up: key: 0: on a scale using +symbols to reflect extent of the effect; −: on a scale using +symbols to reflect extent of the effect; +/−: on a scale using +symbols to reflect extent of the effect; on a scale using +symbols to reflect extent of the effect; ++: on a scale using +symbols to reflect extent of the effect; +++: on a scale using +symbols to reflect extent of the effect; ++++: on a scale using +symbols to reflect extent of the effect; +++++: on a scale using +symbols to reflect extent of the effect; conditions: peptide or protein, hyaluronic acid decoy
Text: as §1

[5] = Penetration of the decoy molecule into skin upon topical application (summary); format: in vitro ADME; set-up: key: 0: on a scale using +symbols to reflect extent of the effect; −: on a scale using +symbols to reflect extent of the effect; +/−: on a scale using +symbols to reflect extent of the effect; on a scale using +symbols to reflect extent of the effect; ++: on a scale using +symbols to reflect extent of the effect; +++: on a scale using +symbols to reflect extent of the effect; ++++: on a scale using +symbols to reflect extent of the effect; +++++: on a scale using +symbols to reflect extent of the effect
Text: as §1

[6] = listed as disaccharide (400 Da)

## CN(C)c1ccc(O)c2c1C[C@H]1C[C@H]3[C@H](N(C)C)C(O)=C(C(N)=O)C(=O)[C@@]3(O)C(O)=C1C2=O [minocycline]
[1]
  penetration of minocycline into porcine skin: low native penetration

## NCC1(CC(=O)O)CCCCC1 [gabapentin alone, gabapentin]
[2]
  gabapentin tissue levels: 0.09 μg of gabapentin per gram of tissue

## hyaluronic acid [Hyaluronic Acid 5000 Da]
[3]; listed as 5000 Da
  Delivery of a Small Molecule Compound: +
[4]; listed as 5000 Da
  Delivery of a Macromolecule Compound: +
[5]; listed as 5000 Da
  Hyaluronic Acid Skin Penetration: +++

## hyaluronic acid [Hyaluronic Acid 100,000 Da]
[3]; listed as 100,000 Da
  Delivery of a Small Molecule Compound: 0
[4]; listed as 100,000 Da
  Delivery of a Macromolecule Compound: 0
[5]; listed as 100,000 Da
  Hyaluronic Acid Skin Penetration: +/−

## hyaluronic acid [Hyaluronic Acid disaccharide (400 Da)]
[3]; [6]
  Delivery of a Small Molecule Compound: 0
[4]; [6]
  Delivery of a Macromolecule Compound: 0
[5]; [6]
  Hyaluronic Acid Skin Penetration: +++++

## hyaluronic acid [Hyaluronic Acid degraded 5000 Da]
[3]; listed as degraded 5000 Da
  Delivery of a Small Molecule Compound: −
[4]; listed as degraded 5000 Da
  Delivery of a Macromolecule Compound: −
[5]; listed as degraded 5000 Da
  Hyaluronic Acid Skin Penetration: ++++

## hyaluronic acid [Hyaluronic Acid 10,000 Da]
[3]; listed as 10,000 Da
  Delivery of a Small Molecule Compound: +++
[4]; listed as 10,000 Da
  Delivery of a Macromolecule Compound: ++
[5]; listed as 10,000 Da
  Hyaluronic Acid Skin Penetration: ++

## hyaluronic acid [Hyaluronic Acid 3000 Da]
[3]; listed as 3000 Da
  Delivery of a Small Molecule Compound: +++
[4]; listed as 3000 Da
  Delivery of a Macromolecule Compound: +
[5]; listed as 3000 Da
  Hyaluronic Acid Skin Penetration: ++++

## hyaluronic acid [Hyaluronic Acid 20,000 Da]
[3]; listed as 20,000 Da
  Delivery of a Small Molecule Compound: ++++
[4]; listed as 20,000 Da
  Delivery of a Macromolecule Compound: +++++
[5]; listed as 20,000 Da
  Hyaluronic Acid Skin Penetration: ++

## hyaluronic acid [Hyaluronic Acid 100,000 Da degraded]
[3]; listed as 100,000 Da degraded
  Delivery of a Small Molecule Compound: ++++
[4]; listed as 100,000 Da degraded
  Delivery of a Macromolecule Compound: +++
[5]; listed as 100,000 Da degraded
  Hyaluronic Acid Skin Penetration: +++

— patent US20190008795A1, “COMPOSITIONS FOR TOPICAL APPLICATION OF COMPOUNDS” (Illustris Pharmaceuticals, Inc., priority 2016, published 2019)
